Data as given in ChEMBL document CHEMBL3045318, “Synthesis and Antimicrobial Evaluation of Some t(3)-Alkyl and t(3),t(5)-Dimethyl-r(2),c(6)-DI-2-Furfurylpiperidin-4-one and its Derivatives” (2005).
Values after ≈ are worked out from the molar mass of the structure shown. Active and inactive are the calls of the source. No cut-off for these calls is given here.

How the values were obtained:
Enterococcus faecalis [1] = experiment: Antimicrobial activity against Enterococcus faecalis after 24 hr by serial dilution method; format: functional
Pseudomonas aeruginosa [2] = experiment: Antimicrobial activity against Pseudomonas aeruginosa at 100 ug/ml after 24 hr by serial dilution method; format: functional, organism-based
Klebsiella pneumoniae [3] = experiment: Antimicrobial activity against Klebsiella pneumoniae after 24 hr by serial dilution method; format: functional
Aspergillus flavus [4] = experiment: Antimicrobial activity against Aspergillus flavus after 72 to 96 hr by serial dilution method; format: functional
Cryptococcus neoformans [5] = experiment: Antimicrobial activity against Cryptococcus neoformans at 200 ug/ml after 72 to 96 hr by serial dilution method; format: functional, organism-based
Bacillus subtilis = experiment: Antimicrobial activity against Bacillus subtilis after 24 hr by serial dilution method; format: functional
Escherichia coli = experiment: Antimicrobial activity against Escherichia coli after 24 hr by serial dilution method; format: functional
Candida [6] = experiment: Antimicrobial activity against Candida 6 after 72 to 96 hr by serial dilution method; format: functional
Cryptococcus neoformans [7] = experiment: Antimicrobial activity against Cryptococcus neoformans at 100 ug/ml after 72 to 96 hr by serial dilution method; format: functional, organism-based
Aspergillus niger [8] = experiment: Antimicrobial activity against Aspergillus niger after 72 to 96 hr by serial dilution method; format: functional
Candida [9] = experiment: Antimicrobial activity against Candida-51 after 72 to 96 hr by serial dilution method; format: functional
Pseudomonas aeruginosa [10] = experiment: Antimicrobial activity against Pseudomonas aeruginosa after 24 hr by serial dilution method; format: functional
Cryptococcus neoformans [11] = experiment: Antimicrobial activity against Cryptococcus neoformans after 72 to 96 hr by serial dilution method; format: functional
Aspergillus flavus [12] = experiment: Antimicrobial activity against Aspergillus flavus at 100 ug/ml after 72 to 96 hr by serial dilution method; format: functional, organism-based
Klebsiella pneumoniae [13] = experiment: Antimicrobial activity against Klebsiella pneumoniae at 100 ug/ml after 24 hr by serial dilution method; format: functional, organism-based
Aspergillus niger [14] = experiment: Antimicrobial activity against Aspergillus niger at 200 ug/ml after 72 to 96 hr by serial dilution method; format: functional, organism-based
Aspergillus niger [15] = experiment: Antimicrobial activity against Aspergillus niger at 100 ug/ml after 72 to 96 hr by serial dilution method; format: functional, organism-based
Aspergillus flavus [16] = experiment: Antimicrobial activity against Aspergillus flavus at 200 ug/ml after 72 to 96 hr by serial dilution method; format: functional, organism-based
Enterococcus faecalis [17] = experiment: Antimicrobial activity against Enterococcus faecalis at 100 ug/ml after 24 hr by serial dilution method; format: functional, organism-based

Structure (SMILES)	MIC (Enterococcus faecalis [1]) [mg/L]	inhibition (Pseudomonas aeruginosa [2])	MIC (Klebsiella pneumoniae [3]) [mg/L]	MIC (Aspergillus flavus [4]) [mg/L]	inhibition (Cryptococcus neoformans [5])	MIC (Bacillus subtilis) [mg/L]	MIC (Escherichia coli) [mg/L]	MIC (Candida [6]) [mg/L]	inhibition (Cryptococcus neoformans [7])	MIC (Aspergillus niger [8]) [mg/L]	MIC (Candida [9]) [mg/L]	MIC (Pseudomonas aeruginosa [10]) [mg/L]	MIC (Cryptococcus neoformans [11]) [mg/L]	inhibition (Aspergillus flavus [12])	inhibition (Klebsiella pneumoniae [13])	inhibition (Aspergillus niger [14])	inhibition (Aspergillus niger [15])	inhibition (Aspergillus flavus [16])	inhibition (Enterococcus faecalis [17])
CC1C(=O)C(C)C(c2ccco2)NC1c1ccco1 (stereo unspecified)	50 (≈ 193 µM)	inactive	100 (≈ 386 µM)	50 (≈ 193 µM)	inactive	12.5 (≈ 48.2 µM)	12.5 (≈ 48.2 µM)	50 (≈ 193 µM)	inactive	100 (≈ 386 µM)	50 (≈ 193 µM)	–	–	–	–	–	–	–	–
CC1C(=NO)C(C)C(c2ccco2)NC1c1ccco1 (stereo unspecified)	25 (≈ 91.1 µM)	–	6.25 (≈ 22.8 µM)	12.5 (≈ 45.6 µM)	–	25 (≈ 91.1 µM)	25 (≈ 91.1 µM)	12.5 (≈ 45.6 µM)	–	25 (≈ 91.1 µM)	12.5 (≈ 45.6 µM)	50 (≈ 182 µM)	6.25 (≈ 22.8 µM)	–	–	–	–	–	–
CN[C@@H]1[C@H](O[C@H]2[C@H](O[C@H]3[C@H](O)[C@@H](O)[C@H](N=C(N)N)[C@@H](O)[C@@H]3N=C(N)N)O[C@@H](C)[C@]2(O)C=O)O[C@@H](CO)[C@H](O)[C@H]1O [STREPTOMYCIN]	50 (≈ 86 µM)	–	25 (≈ 43 µM)	–	–	12.5 (≈ 21.5 µM)	12.5 (≈ 21.5 µM)	–	–	–	–	25 (≈ 43 µM)	–	–	–	–	–	–	–
C[C@@H]1[C@H](O)[C@@H](C)/C=C/C=C/C=C/C=C/C=C/C=C/C=C/[C@H](O[C@@H]2O[C@H](C)[C@@H](O)[C@H](N)[C@@H]2O)C[C@@H]2O[C@](O)(C[C@@H](O)C[C@@H](O)[C@H](O)CC[C@@H](O)C[C@@H](O)CC(=O)O[C@H]1C)C[C@H](O)[C@H]2C(=O)O [AMPHOTERICIN B]	–	–	–	50 (≈ 54.1 µM)	–	–	–	25 (≈ 27.1 µM)	–	50 (≈ 54.1 µM)	25 (≈ 27.1 µM)	–	25 (≈ 27.1 µM)	–	–	–	–	–	–
CC1/C(=N\O)CC(c2ccco2)NC1c1ccco1 (stereo unspecified)	25 (≈ 96 µM)	–	12.5 (≈ 48 µM)	50 (≈ 192 µM)	–	25 (≈ 96 µM)	12.5 (≈ 48 µM)	50 (≈ 192 µM)	–	100 (≈ 384 µM)	12.5 (≈ 48 µM)	25 (≈ 96 µM)	25 (≈ 96 µM)	–	–	–	–	–	–
CCC1/C(=N\O)CC(c2ccco2)NC1c1ccco1 (stereo unspecified)	25 (≈ 91.1 µM)	–	6.25 (≈ 22.8 µM)	25 (≈ 91.1 µM)	–	25 (≈ 91.1 µM)	25 (≈ 91.1 µM)	25 (≈ 91.1 µM)	–	50 (≈ 182 µM)	12.5 (≈ 45.6 µM)	12.5 (≈ 45.6 µM)	12.5 (≈ 45.6 µM)	–	–	–	–	–	–
CC1C(=O)CC(c2ccco2)NC1c1ccco1 (stereo unspecified)	–	inactive	–	–	inactive	50 (≈ 204 µM)	50 (≈ 204 µM)	100 (≈ 408 µM)	inactive	–	100 (≈ 408 µM)	–	–	inactive	inactive	inactive	inactive	inactive	inactive
CCC1C(=O)CC(c2ccco2)NC1c1ccco1 (stereo unspecified)	100 (≈ 386 µM)	inactive	–	100 (≈ 386 µM)	inactive	25 (≈ 96.4 µM)	25 (≈ 96.4 µM)	50 (≈ 193 µM)	inactive	–	100 (≈ 386 µM)	–	–	–	inactive	inactive	inactive	–	–
